Biological target: Tyrosine-protein kinase BTK (Homo sapiens, UniProt Q06187)
Assay: BTK Inhibitory Activity: With regard to the setting of the conditions for a method for measuring the inhibitory activity of a compound against BTK kinase activity in vitro, it is described in the consumable reagent supplies price list for LabChip (registered trademark) series of PerkinElmer, Inc. that FL-PEPTIDE 2 corresponds to a substrate peptide for the measurement of BTK kinase activity. Therefore, FL-PEPTIDE 2 was used as a substrate. The purified recombinant human BTK protein used in the test was purchased from Carna Biosciences, Inc.With regard to the measurement of the inhibitory activity of the compounds, firstly, the compounds of the present invention were diluted stepwise with dimethyl sulfoxide (DMSO). Subsequently, BTK protein, a substrate peptide (final concentration was 1 μM), magnesium chloride (final concentration was 10 mM), ATP (final concentration was 45 μM), and a DMSO solution of the compounds of the present invention (final concentration of DMSO was 5%) were added to a buffer solution for kinase reaction (20 mM HEPES (pH 7.5), 2 mM dithiotheitol, 0.01% Triton X-100), and after the solution was incubated for 40 minutes at 25° C., a kinase reaction was carried out. The reaction was terminated by adding EDTA thereto in order to obtain a final concentration of 30 mM. […]

Chain of Tyrosine-protein kinase BTK (Q06187 whole entry): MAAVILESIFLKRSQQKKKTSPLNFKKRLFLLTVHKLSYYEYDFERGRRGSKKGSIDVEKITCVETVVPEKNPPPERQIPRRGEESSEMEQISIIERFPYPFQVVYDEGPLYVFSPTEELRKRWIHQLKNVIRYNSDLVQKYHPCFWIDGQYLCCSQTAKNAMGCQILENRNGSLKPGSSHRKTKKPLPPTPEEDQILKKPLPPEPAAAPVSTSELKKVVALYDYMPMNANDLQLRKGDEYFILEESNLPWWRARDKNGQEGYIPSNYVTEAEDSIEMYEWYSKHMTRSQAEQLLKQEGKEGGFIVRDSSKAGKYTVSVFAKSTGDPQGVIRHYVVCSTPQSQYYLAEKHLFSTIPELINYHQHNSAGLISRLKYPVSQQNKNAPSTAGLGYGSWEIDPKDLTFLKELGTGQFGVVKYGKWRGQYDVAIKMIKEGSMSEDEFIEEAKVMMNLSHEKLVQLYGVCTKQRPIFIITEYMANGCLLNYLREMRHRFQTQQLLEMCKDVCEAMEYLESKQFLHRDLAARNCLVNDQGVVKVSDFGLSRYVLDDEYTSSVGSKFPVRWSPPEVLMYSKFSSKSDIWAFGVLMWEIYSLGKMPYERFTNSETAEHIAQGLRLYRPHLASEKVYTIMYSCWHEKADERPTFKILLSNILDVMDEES

IC50: 0.442 nM
Structure (SMILES): C=CC(=O)N1CC[C@@H](n2nc(C(=O)Nc3nc4cc(-c5ccccc5)ccc4o3)c3c(N)ncnc32)C1

From ChEMBL document CHEMBL5725787, “Fused pyrimidine compound or salt thereof” (2017)
